The values below come from ChEMBL document CHEMBL3627682, “Exploration of the structure-activity relationship of 1,2,4-oxadiazole antibiotics” (2015).

Values after ≈ are worked out from the molar mass of the structure shown.

Common to all, as to assay type: functional
For assay [1], the system named is Bacillus licheniformis. The experiment in a line: Antibacterial activity against Bacillus licheniformis ATCC 12759.
Assay [2] relates to Enterococcus faecalis. The experiment in a line: Antibacterial activity against Enterococcus faecalis 201.
Assay [3] relates to Staphylococcus aureus. The experiment in a line: Antibacterial activity against ciprofloxacin, gentamicin, oxacillin, penicillin, and linezolid-resistant Staphylococcus aureus NRS120 expressing mecA.
The subject of assay [4] is Staphylococcus aureus. The experiment in a line: Antibacterial activity against vancomycin-resistant Staphylococcus aureus VRS2.
For assay [5], the system named is Staphylococcus aureus. Nature of the assay: Antibacterial activity against methicillin, oxacillin, and tetracycline-resistant and vancomycin and linezolid-susceptible Staphylococcus aureus ATCC 27660 expressing mecA.
For assay [6], the system named is Enterococcus faecium. Nature of the assay: Antibacterial activity against vancomycin-resistant Enterococcus faecium C68.
Assay [7] deals with Enterococcus faecium. Nature of the assay: Antibacterial activity against Vancomycin-susceptible Enterococcus faecium 119-39A.
The test system of assay [8] is Staphylococcus aureus. The experiment in a line: Antibacterial activity against methicillin, oxacillin, and tetracycline-resistant and vancomycin and linezolid-susceptible Staphylococcus aureus NRS100 COL expressing mecA.
For assay [9], the system named is Staphylococcus haemolyticus. The experiment in a line: Antibacterial activity against Staphylococcus haemolyticus ATCC 29970.
Assay [10] deals with Staphylococcus epidermidis. The experiment in a line: Antibacterial activity against Staphylococcus epidermidis ATCC 35547.
Assay [11] has as its system Enterococcus faecalis. Nature of the assay: Antibacterial activity against vancomycin-resistant Enterococcus faecalis 99.
For assay [12], the system named is Staphylococcus aureus. The experiment in a line: Antibacterial activity against ciprofloxacin, gentamicin, oxacillin, penicillin, and linezolid-resistant Staphylococcus aureus NRS119 expressing mecA.
Assay [13] deals with Staphylococcus aureus. The experiment in a line: Antibacterial activity against Staphylococcus aureus ATCC 29213.
The subject of assay [14] is Staphylococcus aureus. Nature of the assay: Antibacterial activity against vancomycin-resistant Staphylococcus aureus VRS1.
Assay [15] deals with Bacillus cereus. The experiment in a line: Antibacterial activity against Bacillus cereus ATCC 13061.
Assay [16] has as its system Enterococcus faecium. The experiment in a line: Antibacterial activity against vancomycin-resistant Enterococcus faecium 106.
Assay [17] deals with Enterococcus faecalis. The experiment in a line: Antibacterial activity against Enterococcus faecalis ATCC 29212.

As to `Oc1ccc(-c2nc(-c3ccc(Oc4ccc(C(F)(F)F)cc4)c(O)c3)no2)cc1`, the MIC in assay [1] was 16 µg/mL (≈ 38.6 µM); in assay [2], 8 µg/mL (≈ 19.3 µM); in [3], 8 µg/mL (≈ 19.3 µM); in assay [4], 8 µg/mL (≈ 19.3 µM); in assay [5] it was 16 µg/mL (≈ 38.6 µM); in assay [6], 8 µg/mL (≈ 19.3 µM). Besides, the minimum inhibitory concentration (MIC) in [7] came to 8 µg/mL (≈ 19.3 µM); in assay [8] it was 16 µg/mL (≈ 38.6 µM); in assay [9], 8 µg/mL (≈ 19.3 µM); in assay [10], 16 µg/mL (≈ 38.6 µM); in [11], 16 µg/mL (≈ 38.6 µM); in assay [12], 8 µg/mL (≈ 19.3 µM). Also, the minimal inhibitory concentration (MIC) in assay [13] stood at 2 µg/mL (≈ 4.83 µM); in assay [14], 8 µg/mL (≈ 19.3 µM); in assay [15], 8 µg/mL (≈ 19.3 µM); in assay [16] it was 8 µg/mL (≈ 19.3 µM); in assay [17], 8 µg/mL (≈ 19.3 µM).
`Oc1ccc(-c2nc(-c3ccc(Oc4ccc(C(F)(F)F)cc4)cc3Cl)no2)cc1`: the minimal inhibitory concentration (MIC) was 2 µg/mL (≈ 4.62 µM) in assay [1]; 4 µg/mL (≈ 9.24 µM) in assay [2]; 4 µg/mL (≈ 9.24 µM) in [3]; 2 µg/mL (≈ 4.62 µM) in assay [4]; 8 µg/mL (≈ 18.5 µM) in assay [5]; 4 µg/mL (≈ 9.24 µM) in assay [6]. For the same compound, the MIC in assay [7] was 4 µg/mL (≈ 9.24 µM); in [8] it was 8 µg/mL (≈ 18.5 µM); in assay [9], 4 µg/mL (≈ 9.24 µM); in [10] it was 4 µg/mL (≈ 9.24 µM); in assay [11], 4 µg/mL (≈ 9.24 µM); in assay [12] it was 4 µg/mL (≈ 9.24 µM). The minimum inhibitory concentration (MIC) is 2 µg/mL (≈ 4.62 µM) in [13]; 2 µg/mL (≈ 4.62 µM) in [14]; 4 µg/mL (≈ 9.24 µM) in [15]; 4 µg/mL (≈ 9.24 µM) in [16]; 4 µg/mL (≈ 9.24 µM) in assay [17].
As to `[N-]=[N+]=Nc1cc(-c2noc(-c3ccc(O)cc3)n2)ccc1Oc1ccc(C(F)(F)F)cc1`, the MIC in [1] is 4 µg/mL (≈ 9.1 µM); in [2] it was 4 µg/mL (≈ 9.1 µM); in assay [3], 4 µg/mL (≈ 9.1 µM); in assay [4], 2 µg/mL (≈ 4.55 µM); in [5], 4 µg/mL (≈ 9.1 µM); in assay [6] it was 4 µg/mL (≈ 9.1 µM). Besides, the minimal inhibitory concentration (MIC) in assay [7] came to 4 µg/mL (≈ 9.1 µM); in assay [8], 4 µg/mL (≈ 9.1 µM); in assay [9], 2 µg/mL (≈ 4.55 µM); in assay [10], 2 µg/mL (≈ 4.55 µM); in assay [11] it was 4 µg/mL (≈ 9.1 µM); in assay [12] it was 4 µg/mL (≈ 9.1 µM). Further, the MIC turned out to be 2 µg/mL (≈ 4.55 µM) in assay [13]; 2 µg/mL (≈ 4.55 µM) in assay [14]; 4 µg/mL (≈ 9.1 µM) in assay [15]; 4 µg/mL (≈ 9.1 µM) in assay [16]; 2 µg/mL (≈ 4.55 µM) in assay [17].
Compound `Oc1ccc(-c2nc(-c3ccc(Oc4ccc(C(F)(F)F)cc4)c(I)c3)no2)cc1` had an MIC in assay [13] of 4 µg/mL (≈ 7.63 µM).
`O=[N+]([O-])c1cc(Oc2ccc(C(F)(F)F)cc2)ccc1-c1noc(-c2ccc(O)cc2)n1`: the MIC in [13] turned out to be 4 µg/mL (≈ 9.02 µM).
In [13], `C=CCOc1cc(-c2noc(-c3ccc(O)cc3)n2)ccc1Oc1ccc(C(F)(F)F)cc1` registered a minimum inhibitory concentration (MIC) of 8 µg/mL (≈ 17.6 µM).
As for `Oc1ccc(-c2nc(-c3ccc(Oc4ccc(C(F)(F)F)cc4)c(F)c3)no2)cc1`, the lowest concentration to inhibit growth in assay [13] (MIC) was 8 µg/mL (≈ 19.2 µM).
Still for that read-out and setting: as for `O=[N+]([O-])c1cc(-c2noc(-c3ccc(O)cc3)n2)ccc1Oc1ccc(C(F)(F)F)cc1`, the figure is 8 µg/mL (≈ 18 µM); as for `Cn1ccc2cc(-c3noc(-c4ccc(O)cc4)n3)ccc21`, 8 µg/mL (≈ 27.5 µM); as for `Cn1ccc2ccc(-c3noc(-c4ccc(O)cc4)n3)cc21`, 8 µg/mL (≈ 27.5 µM).
For the compound `Oc1ccc(-c2nc(-c3ccc(Sc4ccccc4)cc3)no2)cc1`, in assay [13], the MIC amounted to 2 µg/mL (≈ 5.77 µM).
In turn, `Oc1ccc(-c2nc(-c3ccc(Sc4ccc(F)cc4)cc3)no2)cc1` showed a minimal inhibitory concentration (MIC) in [13] of 2 µg/mL (≈ 5.49 µM).
For the compound `Oc1ccc(-c2nc(-c3ccc(Sc4ccc(C(F)(F)F)cc4)cc3)no2)cc1`, the minimum inhibitory concentration (MIC) in [1] is 1 µg/mL (≈ 2.41 µM); in assay [2] it was 2 µg/mL (≈ 4.83 µM); in assay [3], 2 µg/mL (≈ 4.83 µM); in [4] it was 2 µg/mL (≈ 4.83 µM); in assay [5], 2 µg/mL (≈ 4.83 µM); in [6], 2 µg/mL (≈ 4.83 µM). Further, the MIC in [7], in [8], in assay [9], in [10], in assay [11] and in assay [12] was 2 µg/mL (≈ 4.83 µM) each time. Moreover, the MIC in [13] was 2 µg/mL (≈ 4.83 µM); in [14], 2 µg/mL (≈ 4.83 µM); in assay [15] it was 8 µg/mL (≈ 19.3 µM); in assay [16], 2 µg/mL (≈ 4.83 µM); in assay [17], 2 µg/mL (≈ 4.83 µM).
In assay [13], `Oc1ccc(-c2nc(-c3ccc(Nc4ccccc4)cc3)no2)cc1` gave an MIC of 4 µg/mL (≈ 12.1 µM).
In [13], `Oc1ccc(-c2nc(-c3ccc(Sc4cccc(Br)c4)cc3)no2)cc1` displayed an MIC of 8 µg/mL (≈ 18.8 µM).
The same measure, in the same setting: next, `CC(C)(C)OC(=O)Nc1ccc(-c2noc(-c3ccc(O)cc3)n2)cc1`: 8 µg/mL (≈ 22.6 µM); `Cl.Oc1ccc(-c2nc(-c3ccc(N4CCCCC4)cc3)no2)cc1`: 8 µg/mL; `Nc1cc(-c2noc(-c3ccc(O)cc3)n2)ccc1Oc1ccc(C(F)(F)F)cc1`: ≥ 128 µg/mL.
For the compound `[N-]=[N+]=Nc1cc(Oc2ccc(C(F)(F)F)cc2)ccc1-c1noc(-c2ccc(O)cc2)n1`, the MIC in assay [13] was ≥ 128 µg/mL.
Same read-out and setting: as for `Oc1ccc(-c2nc(-c3ccc(Oc4ccc(C(F)(F)F)cc4)c(Cl)c3)no2)cc1`, the figure is ≥ 128 µg/mL.
`Oc1ccc(-c2nc(-c3ccc4occc4c3)no2)cc1` gave an MIC in assay [13] of 64 µg/mL (≈ 230 µM).
As to `Oc1ccc(-c2nc(-c3ccc4sccc4c3)no2)cc1`, the MIC in assay [13] was ≥ 128 µg/mL.
In assay [13], `Oc1ccc(-c2nc(-c3ccc4c(ccn4Cc4ccccc4)c3)no2)cc1` had an MIC of 128 µg/mL (≈ 348 µM).
As to `Cn1ccc2ccc(-c3noc(-c4n[nH]cc4Cl)n3)cc21`, the MIC in [13] was ≥ 128 µg/mL.
Consider `O=C1OCc2cc(-c3noc(-c4ccc(O)cc4)n3)ccc21`, for which, in assay [13], the minimum inhibitory concentration (MIC) was ≥ 128 µg/mL.
Same read-out and setting: as for `Oc1ccc(-c2nc(-c3ccc4c(c3)OCO4)no2)cc1`, the figure is ≥ 128 µg/mL; as for `Clc1c[nH]nc1-c1nc(-c2ccc3c(c2)OCO3)no1`, ≥ 128 µg/mL; as for `O=C1OCc2cc(-c3noc(-c4n[nH]cc4Cl)n3)ccc21`, ≥ 128 µg/mL.
